Reference: EP0560267B1, “Isosteric antiherpes peptide derivatives” (BOEHRINGER INGELHEIM (CANADA) LTD., priority 1992, dated 1993)
pEC50, pIC50: −log10 of the molar value.

Legend:
[1] = target: T1, HSV-1 ribonucleotide reductase (Human herpesvirus 1, UniProt P08543); test: Inhibition of Herpes Simplex Virus (HSV-1) ribonucleotide reductase; type: biochemical; conditions: Table IV; assay of example 10
T1 construct: HSV-1 ribonucleotide reductase (partially purified) was obtained from quiescent BHK-21/C13 cells infected with strain F HSV-1 virus; made in house; host or cells: quiescent BHK-21/C13 cells infected with HSV-1 strain F (virus-encoded enzyme, partially purified)
T1 sequence (P08543 whole entry): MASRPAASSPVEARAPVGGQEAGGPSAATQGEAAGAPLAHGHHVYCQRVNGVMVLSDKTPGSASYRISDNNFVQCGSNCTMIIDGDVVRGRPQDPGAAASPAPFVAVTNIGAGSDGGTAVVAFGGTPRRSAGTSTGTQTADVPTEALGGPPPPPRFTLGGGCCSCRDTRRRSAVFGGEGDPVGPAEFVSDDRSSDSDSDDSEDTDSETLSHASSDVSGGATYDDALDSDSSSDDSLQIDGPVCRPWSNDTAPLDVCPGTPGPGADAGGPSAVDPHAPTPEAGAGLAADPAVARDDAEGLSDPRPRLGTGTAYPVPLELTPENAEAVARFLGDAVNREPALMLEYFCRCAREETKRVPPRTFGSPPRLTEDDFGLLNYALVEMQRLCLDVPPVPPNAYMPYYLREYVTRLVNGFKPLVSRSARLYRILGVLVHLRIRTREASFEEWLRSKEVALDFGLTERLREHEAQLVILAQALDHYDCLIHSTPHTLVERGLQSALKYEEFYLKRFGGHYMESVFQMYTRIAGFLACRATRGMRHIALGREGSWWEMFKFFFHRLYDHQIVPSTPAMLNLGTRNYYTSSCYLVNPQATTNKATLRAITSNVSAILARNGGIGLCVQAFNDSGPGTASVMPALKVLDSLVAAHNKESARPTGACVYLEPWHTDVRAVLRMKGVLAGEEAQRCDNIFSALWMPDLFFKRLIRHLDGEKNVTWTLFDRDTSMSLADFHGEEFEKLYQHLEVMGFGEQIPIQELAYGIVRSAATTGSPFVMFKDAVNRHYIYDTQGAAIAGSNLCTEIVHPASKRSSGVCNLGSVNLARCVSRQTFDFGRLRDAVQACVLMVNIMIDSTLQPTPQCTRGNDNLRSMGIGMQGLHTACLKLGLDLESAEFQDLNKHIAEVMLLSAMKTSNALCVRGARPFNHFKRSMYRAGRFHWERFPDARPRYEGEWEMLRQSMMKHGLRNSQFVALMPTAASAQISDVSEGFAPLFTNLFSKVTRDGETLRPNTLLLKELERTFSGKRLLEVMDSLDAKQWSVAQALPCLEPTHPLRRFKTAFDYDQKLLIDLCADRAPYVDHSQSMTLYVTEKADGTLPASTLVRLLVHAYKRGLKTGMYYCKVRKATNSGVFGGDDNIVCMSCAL
Source text: Inhibition of Herpes Simplex Virus (HSV-1) Ribonucleotide Reductase
• a) Preparation of Enzyme HSV-1 ribonucleotide reductase (partially purified) was obtained from quiescent BHK-21/C13 cells infected with strain F HSV-1 virus at 10 plaque forming units/cell as described by E.A. Cohen et al., J. Gen. Virol., 66, 733 (1985). • b) Assay and Results for Exemplified Peptides By following the procedure described by P. Gaudreau et al., J. Biol, Chem., 262, 12413 (1987), the assay results listed in the following Table I were obtained. The assay result for each exemplified compound of formula 1 is expressed as the concentration of the compound producing 50% of the maximal inhibition (IC50) of enzyme activity. The number of units of the enzyme preparation used in each assay was constant, based on the specific activity of the enzyme preparation. The results are relative to the activity obtained in control experiments without the test compound and represent the mean of four assays that varied less than 10% with each other.

[2] = system: HSV-2; test: Inhibition of Herpes Simplex Virus (HSV-2) replication in cell culture; type: cell-based; conditions: Human alphaherpesvirus 2, Table IV; cell culture assay of example 11; read-out: EC50
Description: Inhibition of Herpes Simplex Virus (HSV-2) Replication in Cell Culture
BHK-21/C13 cells (ATCC CCL 10) are incubated for two days in 150 cm^2 T-flasks (1.5 x 10^6 cells/flask) with alpha-MEM medium (Gibco Canada Inc., Burlington, Ontario, Canada) supplemented with 8% (v/v) fetal bovine serum (FBS, Gibco Canada Inc.). The cells are trypsinized and then transferred to fresh media in a 24 well plate to give 2.5 x 10^5 cells in 750 µL of media per well. The cells are incubated at 37° for a period of 6 h to allow them to adhere to the plate. Thereafter, the cells are washed once with 500 µL of alpha-MEM supplemented with 0.5% (v/v) FBS and then incubated with 750 µL of the same media (low serum) for 3 days. After this period of serum starvation, the low serum medium is removed and the cells are incubated in 500 µL of BBMT for 2 to 3 hours. {BBMT medium is described by P. Brazeau et al., Proc. Natl. Acad. Sci. USA, 79, 7909 (1982).} Thereafter, the cells are infected with HSV-2 (multiplicity of infection = 0.02 PFU/cell) in 100 µL of BBMT medium. (Note: The HSV-2 used was strain HG-52, see Y. Langelier and G. Buttin, J. Gen. Virol., 57, 21 (1981); the virus was stored at -80°.) Following 1 h of virus adsorption at 37°, the media is removed and the cells are washed with BBMT (3 X 250 µL). The cells in each well are incubated with or without (control) appropriate concentrations of the test agent dissolved in 200 µL of BBMT medium. After 29 h of incubation at 37°, the infected cells are harvested by first freezing the plate at -80°, followed by thawing. The cells in each well are scraped off the surface of the well with the help of the melting ice fragments. After complete thawing, the cell suspensions are collected and each well is rinsed with 150 µL of BBMT medium. The viral sample (suspension plus washing) is sonicated gently for 4 min at 4°. Cell debris are removed by centrifugation (1000 times gravity for 10 minutes at 4°). The supernatant is collected and stored at -80° until determination of viral titer.
Viral titration was performed by a modification of the colorimetric assay method of M. Langlois et al., Journal of Biological Standardization, 14, 201 (1986).
More specifically, in a similar manner as described above, BHK-21/C13 cells are trypsinized and transferred to fresh media in a 96 well microtiter plate to give 20,000 cells in 100 µL of media per well. The cells in the prepared plate are incubated at 37° for 2 h. During that time, the viral sample is thawed and sonicated gently for 15 seconds, and log dilutions of the sample are prepared (1/5 sequential: 50 µL of the sample plus 200 µL of BBMT medium, sequential dilutions being done with a multichannel pipette.
On completion of the above 2 hour incubation of the BHK-21/C13 cells, the media is replaced with alpha-MEM medium supplemented with 3% (v/v) FBS. The cells are now ready to be infected with the various sample dilutions of virus. Aliquots (50 µL) of the various dilutions are transferred into the appropriate wells of the plate. The resulting infected cells are incubated for 2 days at 37°. Then 50 µL of a 0.15% (v/v) solution of neutral red dye in Hank's Balanced Salt Solution (pH 7.3, Gibco Canada Inc.) is added to each well. The prepared plate is incubated for 45 min at 37°. Medium from each well is then aspirated and the cells are washed once with 200 µL of Hank's Balanced Salt Solution. […]

Compound | pIC50 [1] | pEC50 [2]
CCCC(CCC)NC(=O)NC(C(=O)CC(CC(=O)C(C)(C)C)C(=O)NC(C(=O)NC(C)C(C)(C)C)C1(C(=O)O)CCCC1)C(C)(C)C [Pr2CHNHC(O) / NH-(R)-CH(Me)CMe3, Pr2CHNHC(O)-Tbg-CH2-(R)-CH(CH2C(O)CMe3)C(O)-Asp(cyPn)-NH-(R)-CH(Me)CMe3] | 6.55 | 4.85
CCCC(CCC)NC(=O)NC(C(=O)CC(CC(=O)C(C)(C)C)C(=O)NC(C(=O)NCC(C)CC)C1(C(=O)O)CCCC1)C(C)(C)C [Pr2CHNHC(O) / NHCH2-(R,S)-CH(Me)Et, Pr2CHNHC(O)-Tbg-CH2-(R)-CH(CH2C(O)CMe3)C(O)-Asp(cyPn)-NHCH2-(R,S)-CH(Me)Et] | 6.54 | 4.30
CCCC(CCC)NC(=O)NC(C(=O)CC(CC(=O)C(C)(C)C)C(=O)NC(C(=O)NCC1CCCCC1)C1(C(=O)O)CCCC1)C(C)(C)C [Pr2CHNHC(O) / NHCH2-(cyclohexyl), Pr2CHNHC(O)-Tbg-CH2-(R)-CH(CH2C(O)CMe3)C(O)-Asp(cyPn)-NHCH2-(cyclohexyl)] | 6.44 | 4.33
CCCC(CCC)NC(=O)NC(C(=O)CC(CC(=O)C(C)(C)C)C(=O)NC(C(=O)NCC(CC)(CC)CC)C1(C(=O)O)CCCC1)C(C)(C)C [Pr2CHNHC(O) / NHCH2CEt3, Pr2CHNHC(O)-Tbg-CH2-(R)-CH(CH2C(O)CMe3)C(O)-Asp(cyPn)-NHCH2CEt3] | 6.28 | 4.72
CCCC(CCC)NC(=O)NC(C(=O)CC(CC(=O)C(C)(C)C)C(=O)NC(C(=O)NCCC(C)(C)C)C1(C(=O)O)CCCC1)C(C)(C)C [Pr2CHNHC(O) / NHCH2CH2CMe3, Pr2CHNHC(O)-Tbg-CH2-(R)-CH(CH2C(O)CMe3)C(O)-Asp(cyPn)-NHCH2CH2CMe3] | 6.24 | 4.14
CCCC(CCC)NC(=O)NC(C(=O)CC(CC(=O)C(C)(C)C)C(=O)NC(C(=O)NCC(C)(C)CC)C1(C(=O)O)CCCC1)C(C)(C)C [Pr2CHNHC(O) / NHCH2CMe2Et, Pr2CHNHC(O)-Tbg-CH2-(R)-CH(CH2C(O)CMe3)C(O)-Asp(cyPn)-NHCH2CMe2Et] | 6.62 | 4.80
CCCC(CCC)NC(=O)NC(C(=O)CC(CC(=O)C(C)(C)C)C(=O)NC(C(=O)NC(C)(C)C(C)(C)C)C1(C(=O)O)CCCC1)C(C)(C)C [Pr2CHNHC(O) / NHCMe2CMe3, Pr2CHNHC(O)-Tbg-CH2-(R)-CH(CH2C(O)CMe3)C(O)-Asp(cyPn)-NHCMe2CMe3] | 6.29 | 4.42

Continued by rising pIC50 [1], values first:

pIC50 [1] | pEC50 [2] | Compound
6.37 | 4.82 | CCCC(CCC)NC(=O)NC(C(=O)CC(CC(=O)C(C)(C)C)C(=O)NC(C(=O)NC(CCC)C(C)(C)C)C1(C(=O)O)CCCC1)C(C)(C)C [Pr2CHNHC(O) / NH-(R)-CH(Pr)CMe3, Pr2CHNHC(O)-Tbg-CH2-(R)-CH(CH2C(O)CMe3)C(O)-Asp(cyPn)-NH-(R)-CH(Pr)CMe3]
6.38 | 4.46 | CCCC(CCC)NC(=O)NC(C(=O)CC(CC(=O)C(C)(C)C)C(=O)NC(C(=O)NCC(C)(C)CCC)C1(C(=O)O)CCCC1)C(C)(C)C [Pr2CHNHC(O) / NHCH2CMe2Pr, Pr2CHNHC(O)-Tbg-CH2-(R)-CH(CH2C(O)CMe3)C(O)-Asp(cyPn)-NHCH2CMe2Pr]
6.47 | 4.74 | CCCC(CCC)NC(=O)NC(C(=O)CC(CC(=O)C(C)(C)C)C(=O)NC(C(=O)NCC(C)(CC)CC)C1(C(=O)O)CCCC1)C(C)(C)C [Pr2CHNHC(O) / NHCH2CEt2Me, Pr2CHNHC(O)-Tbg-CH2-(R)-CH(CH2C(O)CMe3)C(O)-Asp(cyPn)-NHCH2CEt2Me]
6.57 | 3.96 | CCCC(CCC)NC(=O)NC(C(=O)CC(CC(=O)C(C)(C)C)C(=O)NC(C(=O)NN(C)C(C)(C)C)C1(C(=O)O)CCCC1)C(C)(C)C [Pr2CHNHC(O) / NH-N(Me)CMe3, Pr2CHNHC(O)-Tbg-CH2-(R)-CH(CH2C(O)CMe3)C(O)-Asp(cyPn)-NH-N(Me)CMe3]
6.64 | 4.32 | CCCC(CCC)NC(=O)NC(C(=O)CC(CC(=O)C(C)(C)C)C(=O)NC(C(=O)NC(CO)C(C)(C)C)C1(C(=O)O)CCCC1)C(C)(C)C [Pr2CHNHC(O) / NH-(S)-CH(CMe3)CH2OH, Pr2CHNHC(O)-Tbg-CH2-(R)-CH(CH2C(O)CMe3)C(O)-Asp(cyPn)-NH-(S)-CH(CMe3)CH2OH]
